Key:
Details in all cases: 24 h, positive control
HEK BLUE hTLR8 = test: Cell activity detection (CellTiter-Glo) in hTLR8 cells; type: cell-based, human
Protocol: (§1) 1) The conjugate of the present invention was diluted to a concentration that was 20 times a final concentration, the diluted conjugate was mixed with RNAiMAX-OPTI MEM (RNAiMAX:OPTI MEM=3:47) at a ratio of 1:1 and incubated for 15 min at room temperature.
(§2) 2) 10 μL of incubated conjugate of the present invention was added into a corresponding cell plate, with 10 concentrations in total, a maximum concentration being 200 nM, and double duplicated wells for each concentration.
(§3) 4) 90 μL of cells were seeded into a 96-well plate with the conjugate at the density of 50,000 cells/well.
(§4) 5) The conjugate of the present invention and the cells were co-incubated for 24 h in an incubator under the conditions of 37° C. and 5% CO2.
(§5) 8) Cell activity detection: the operation was carried out according to the method in the Celltiter-Glo specification, and a chemiluminescence signals (RLU) were detected using the multifunctional microplate reader Flexstation III.
(§6) Compound activity: the OD650 values were analyzed using GraphPad Prism software, and a dose effect curve of the compound was fit, and the EC50 value of the compound was calculated. Cell activity detection: the calculation formula of cell activity % was as follows. The cell activity % value was analyzed using GraphPadPrism software, the dose effect curve of the compound was fit, and the CC50 value of the compound on cell was calculated.

HEK BLUE hTLR7 = test: Cell activity detection (CellTiter-Glo) in hTLR7 cells; type: cell-based, human
Protocol: as §1, §2, §3, §4, §5, §6

hTLR3 = molecular target: T1, hTLR3 (Homo sapiens, UniProt O15455); test: Agonistic activity on hTLR3 cells (HEK BLUE, QUANTI-Blue OD650); type: cell-based
T1 construct: host or cells: HEK BLUE hTLR3 (HEK293-derived SEAP reporter line)
T1 sequence (O15455 24-904): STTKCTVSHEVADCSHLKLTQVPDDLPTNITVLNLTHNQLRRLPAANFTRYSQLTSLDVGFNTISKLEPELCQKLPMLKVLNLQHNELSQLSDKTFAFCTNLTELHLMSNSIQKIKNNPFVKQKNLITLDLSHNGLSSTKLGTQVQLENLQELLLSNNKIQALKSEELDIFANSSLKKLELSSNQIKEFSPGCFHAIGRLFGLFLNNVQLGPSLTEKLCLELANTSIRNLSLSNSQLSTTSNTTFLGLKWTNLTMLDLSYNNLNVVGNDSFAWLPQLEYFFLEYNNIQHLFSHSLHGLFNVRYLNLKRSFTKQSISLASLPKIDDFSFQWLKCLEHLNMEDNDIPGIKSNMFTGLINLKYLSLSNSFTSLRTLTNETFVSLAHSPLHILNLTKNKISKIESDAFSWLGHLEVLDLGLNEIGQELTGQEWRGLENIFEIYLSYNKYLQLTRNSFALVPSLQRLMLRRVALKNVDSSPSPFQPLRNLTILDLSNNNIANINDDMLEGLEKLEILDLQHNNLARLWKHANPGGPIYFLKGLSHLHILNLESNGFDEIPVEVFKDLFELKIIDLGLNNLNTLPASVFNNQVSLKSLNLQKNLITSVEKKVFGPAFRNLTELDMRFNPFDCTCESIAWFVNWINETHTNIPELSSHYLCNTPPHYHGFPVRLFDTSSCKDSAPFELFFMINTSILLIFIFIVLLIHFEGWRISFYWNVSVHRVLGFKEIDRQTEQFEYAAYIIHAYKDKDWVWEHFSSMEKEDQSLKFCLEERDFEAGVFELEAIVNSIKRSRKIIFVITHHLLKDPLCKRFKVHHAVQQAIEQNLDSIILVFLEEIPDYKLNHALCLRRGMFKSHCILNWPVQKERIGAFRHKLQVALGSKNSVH
Protocol: as §1, §2
10 μL of 0.5 μM BLOCK-iT™ Alexa Fluor® Red Fluorescent Control was added into 2 transfection positive control wells.
as §3, §4
7) Compound activity detection: 20 μL of cell supernatant was taken from each well and added into an experimental plate containing 180 μL of QUANTI-Blue™ reagent and then incubated for 1 h at 37° C., followed by detecting an absorbance values at 650 nm (OD650) using the multifunctional microplate reader Flexstation III.
as §6

HEK BLUE hTLR3 = test: Cell activity detection (CellTiter-Glo) in hTLR3 cells; type: cell-based, human
Protocol: as §1, §2, §3, §4, §5, §6

Row | EC50 (hTLR3) [mg/L] | Molecule | CC50 (HEK BLUE hTLR8) [mg/L] | CC50 (HEK BLUE hTLR7) [mg/L] | CC50 (HEK BLUE hTLR3) [mg/L]
1 | – | CCOCc1nc2c(N)nc3ccccc3c2n1CC(C)(C)O [Conjugate R848, R848, reference compound] | >10 | >10 | –
2 | 0.05943 | Poly (I:C) HMW [Poly(I:C) HMW, reference compound] | – | – | >2
